How the values were obtained:
[1] = biological target: T1, Alpha-1B adrenergic receptor (Rattus norvegicus, UniProt P15823); assay: DRUGMATRIX: Alpha-1B adrenergic receptor radioligand binding (ligand: prazosin); assay type: cell membranes, Wistar, Liver, Membrane; conditions: Not Active = under 50% inhibition at 10 µM
T1 sequence (P15823 whole entry): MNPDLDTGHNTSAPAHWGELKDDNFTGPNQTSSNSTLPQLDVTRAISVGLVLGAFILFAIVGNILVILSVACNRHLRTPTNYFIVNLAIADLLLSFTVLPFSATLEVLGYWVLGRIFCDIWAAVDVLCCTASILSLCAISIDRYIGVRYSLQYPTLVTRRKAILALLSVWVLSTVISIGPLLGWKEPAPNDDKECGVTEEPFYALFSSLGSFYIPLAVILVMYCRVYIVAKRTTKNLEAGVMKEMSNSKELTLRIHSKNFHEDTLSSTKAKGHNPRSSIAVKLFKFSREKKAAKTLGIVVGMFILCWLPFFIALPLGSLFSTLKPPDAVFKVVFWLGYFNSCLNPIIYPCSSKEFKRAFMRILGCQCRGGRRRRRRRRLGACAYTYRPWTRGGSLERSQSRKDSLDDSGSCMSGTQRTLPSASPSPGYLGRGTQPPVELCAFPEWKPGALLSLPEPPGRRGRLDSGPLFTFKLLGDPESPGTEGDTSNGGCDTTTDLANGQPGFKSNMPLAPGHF

[2] = biological target: Beta-2 adrenergic receptor (Homo sapiens, UniProt P07550); assay: DRUGMATRIX: Adrenergic beta2 radioligand binding (ligand: [3H] CGP-12177); assay type: cell membranes, Membrane; conditions: cho; Not Active = under 50% inhibition at 10 µM
[3] = biological target: 5-hydroxytryptamine receptor 4 (Cavia porcellus, UniProt O70528); assay type: cell membranes, Dunkin-Hartley, Striatum, Membrane; further: in other assays of this panel Not Active means under 50% inhibition at 10 µM
[4] = DRUGMATRIX: GABAA, Muscimol, Central radioligand binding (ligand: [3H] Muscimol); assay type: cell membranes, Rattus norvegicus, Wistar, Brain, Membrane; conditions: Not Active = under 50% inhibition at 10 µM
[5] = DRUGMATRIX: Phosphodiesterase PDE4 enzyme inhibition (substrate: [3H]cAMP + cAMP); conditions: u-937, Not Active = under 50% inhibition at 10 µM
[6] = biological target: Platelet-activating factor receptor (Homo sapiens, UniProt P25105); assay: biochemical; assay type: tissue-based; conditions: platelet; further: in other assays of this panel Not Active means under 50% inhibition at 10 µM
[7] = biological target: T2, Angiotensin-converting enzyme (Oryctolagus cuniculus, UniProt P12822); assay: biochemical; assay type: tissue-based, Lung;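 further: enzymatic inhibition of angiotensin-converting enzyme measured with FAPGG as the substrate; in other assays of this panel Not Active means under 50% inhibition at 10 µM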
T2 sequence (P12822 whole entry): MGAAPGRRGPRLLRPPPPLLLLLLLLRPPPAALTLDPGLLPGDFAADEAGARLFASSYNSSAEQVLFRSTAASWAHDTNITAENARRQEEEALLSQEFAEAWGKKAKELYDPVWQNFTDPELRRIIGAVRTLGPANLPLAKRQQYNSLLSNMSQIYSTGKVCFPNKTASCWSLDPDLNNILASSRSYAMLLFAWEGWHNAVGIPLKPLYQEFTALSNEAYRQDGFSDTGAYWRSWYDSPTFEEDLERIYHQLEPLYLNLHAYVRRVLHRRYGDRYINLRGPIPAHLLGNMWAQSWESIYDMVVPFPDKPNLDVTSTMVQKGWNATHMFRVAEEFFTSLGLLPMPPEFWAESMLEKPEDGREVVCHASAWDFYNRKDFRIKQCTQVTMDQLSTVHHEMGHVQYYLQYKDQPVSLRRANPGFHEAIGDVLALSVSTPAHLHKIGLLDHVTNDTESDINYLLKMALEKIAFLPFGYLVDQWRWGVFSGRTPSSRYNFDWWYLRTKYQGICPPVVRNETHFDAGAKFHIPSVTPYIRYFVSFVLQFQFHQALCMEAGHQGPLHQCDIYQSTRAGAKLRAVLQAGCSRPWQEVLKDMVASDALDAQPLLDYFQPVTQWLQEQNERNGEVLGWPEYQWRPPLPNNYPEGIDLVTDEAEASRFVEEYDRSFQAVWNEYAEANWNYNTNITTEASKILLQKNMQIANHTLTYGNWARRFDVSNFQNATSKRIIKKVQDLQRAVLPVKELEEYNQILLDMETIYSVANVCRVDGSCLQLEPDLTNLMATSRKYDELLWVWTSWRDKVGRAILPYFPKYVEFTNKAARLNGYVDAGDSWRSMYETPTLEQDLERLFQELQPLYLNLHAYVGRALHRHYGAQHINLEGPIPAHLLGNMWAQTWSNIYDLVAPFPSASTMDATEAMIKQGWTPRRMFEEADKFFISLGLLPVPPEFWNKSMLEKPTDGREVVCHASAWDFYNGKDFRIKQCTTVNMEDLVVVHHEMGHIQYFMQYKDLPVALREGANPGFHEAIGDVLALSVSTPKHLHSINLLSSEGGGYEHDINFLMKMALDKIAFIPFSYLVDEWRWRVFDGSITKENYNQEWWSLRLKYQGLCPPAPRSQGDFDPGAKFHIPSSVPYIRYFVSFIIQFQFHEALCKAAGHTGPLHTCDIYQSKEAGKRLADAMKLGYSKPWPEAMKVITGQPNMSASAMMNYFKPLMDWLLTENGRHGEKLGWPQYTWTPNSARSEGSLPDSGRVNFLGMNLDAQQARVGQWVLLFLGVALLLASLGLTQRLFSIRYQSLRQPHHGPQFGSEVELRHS

[8] = biological target: Mitogen-activated protein kinase 3 (Homo sapiens, UniProt P27361); assay: DRUGMATRIX: Protein Serine/Threonine Kinase, ERK1 enzyme inhibition (substrate: Myelin Basic Protein); set-up: species or system Escherichia coli; conditions: Not Active = under 50% inhibition at 10 µM
[9] = biological target: T3, 5-hydroxytryptamine receptor 1A (Rattus norvegicus, UniProt P19327); assay type: cell membranes, CHO-K1, Membrane; conditions: cho-k1; further: in other assays of this panel Not Active means under 50% inhibition at 10 µM
T3 sequence (P19327 whole entry): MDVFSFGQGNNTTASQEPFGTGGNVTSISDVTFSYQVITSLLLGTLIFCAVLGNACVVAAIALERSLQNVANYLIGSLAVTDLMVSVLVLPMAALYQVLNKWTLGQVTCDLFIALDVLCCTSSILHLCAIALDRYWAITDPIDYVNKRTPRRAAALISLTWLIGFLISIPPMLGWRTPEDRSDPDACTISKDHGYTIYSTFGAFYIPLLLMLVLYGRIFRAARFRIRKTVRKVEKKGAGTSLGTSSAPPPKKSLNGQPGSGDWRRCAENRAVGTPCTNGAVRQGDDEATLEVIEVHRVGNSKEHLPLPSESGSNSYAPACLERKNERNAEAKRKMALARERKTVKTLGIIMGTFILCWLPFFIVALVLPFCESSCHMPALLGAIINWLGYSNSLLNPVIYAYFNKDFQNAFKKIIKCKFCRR

[10] = biological target: 5-hydroxytryptamine receptor 1B (Rattus norvegicus, UniProt P28564); assay type: cell membranes, Wistar, Cerebral cortex, Membrane; further: in other assays of this panel Not Active means under 50% inhibition at 10 µM
5-hydroxytryptamine receptor 1B, sequence (P28564 whole entry): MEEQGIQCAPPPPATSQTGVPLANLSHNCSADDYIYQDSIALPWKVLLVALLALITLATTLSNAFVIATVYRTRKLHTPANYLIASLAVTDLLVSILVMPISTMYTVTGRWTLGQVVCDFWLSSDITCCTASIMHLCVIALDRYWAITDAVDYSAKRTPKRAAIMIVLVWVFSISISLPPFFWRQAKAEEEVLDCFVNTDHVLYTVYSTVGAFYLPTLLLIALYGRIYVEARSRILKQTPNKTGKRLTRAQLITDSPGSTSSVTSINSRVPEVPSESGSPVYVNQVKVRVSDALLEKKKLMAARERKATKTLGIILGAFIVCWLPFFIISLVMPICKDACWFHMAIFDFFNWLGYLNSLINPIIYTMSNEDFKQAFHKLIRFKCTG

Mitogen-activated protein kinase 3, sequence (P27361 whole entry): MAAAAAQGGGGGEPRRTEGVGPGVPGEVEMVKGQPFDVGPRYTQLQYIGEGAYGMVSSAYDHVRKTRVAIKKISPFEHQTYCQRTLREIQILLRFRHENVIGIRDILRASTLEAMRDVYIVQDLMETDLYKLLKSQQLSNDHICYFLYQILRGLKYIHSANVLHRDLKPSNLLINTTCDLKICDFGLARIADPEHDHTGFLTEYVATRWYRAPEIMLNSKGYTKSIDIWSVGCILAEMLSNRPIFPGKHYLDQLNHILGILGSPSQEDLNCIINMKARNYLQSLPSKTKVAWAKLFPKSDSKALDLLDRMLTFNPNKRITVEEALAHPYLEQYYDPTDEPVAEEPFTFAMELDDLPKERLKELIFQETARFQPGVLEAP
Platelet-activating factor receptor, sequence (P25105 whole entry): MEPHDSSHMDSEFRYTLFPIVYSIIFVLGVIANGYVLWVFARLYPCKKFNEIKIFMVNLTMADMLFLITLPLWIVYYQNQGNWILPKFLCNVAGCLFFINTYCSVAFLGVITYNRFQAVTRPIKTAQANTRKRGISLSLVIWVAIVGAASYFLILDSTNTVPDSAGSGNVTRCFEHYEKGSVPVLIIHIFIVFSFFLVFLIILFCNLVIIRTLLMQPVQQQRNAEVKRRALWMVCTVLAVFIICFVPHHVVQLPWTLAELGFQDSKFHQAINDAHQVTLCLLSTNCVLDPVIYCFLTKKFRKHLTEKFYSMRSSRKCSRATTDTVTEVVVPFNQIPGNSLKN
5-hydroxytryptamine receptor 4, sequence (O70528 whole entry): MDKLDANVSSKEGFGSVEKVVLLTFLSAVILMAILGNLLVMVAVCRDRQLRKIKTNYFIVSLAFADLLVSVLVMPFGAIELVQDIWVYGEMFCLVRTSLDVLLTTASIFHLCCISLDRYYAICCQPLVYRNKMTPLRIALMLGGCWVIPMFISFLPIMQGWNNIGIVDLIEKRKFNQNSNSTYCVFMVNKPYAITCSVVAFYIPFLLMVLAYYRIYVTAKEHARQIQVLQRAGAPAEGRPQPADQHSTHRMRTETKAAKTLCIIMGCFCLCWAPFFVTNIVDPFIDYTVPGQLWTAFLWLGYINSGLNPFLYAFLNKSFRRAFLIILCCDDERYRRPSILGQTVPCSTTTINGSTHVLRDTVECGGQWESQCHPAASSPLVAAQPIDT
Beta-2 adrenergic receptor, sequence (P07550 whole entry): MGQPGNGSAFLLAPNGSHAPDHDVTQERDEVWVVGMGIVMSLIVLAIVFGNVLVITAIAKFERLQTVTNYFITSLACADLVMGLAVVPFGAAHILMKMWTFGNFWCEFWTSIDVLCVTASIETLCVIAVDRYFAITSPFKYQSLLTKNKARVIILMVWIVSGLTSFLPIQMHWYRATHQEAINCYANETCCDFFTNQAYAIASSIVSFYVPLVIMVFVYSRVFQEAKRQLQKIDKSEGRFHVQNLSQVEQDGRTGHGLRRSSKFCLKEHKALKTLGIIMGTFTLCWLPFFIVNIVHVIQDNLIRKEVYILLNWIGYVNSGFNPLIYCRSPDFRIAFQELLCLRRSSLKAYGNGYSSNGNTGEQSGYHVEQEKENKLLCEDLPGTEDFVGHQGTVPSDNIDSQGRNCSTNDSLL

Row | Compound | IC50 [1] | IC50 [2] | IC50 [3] | IC50 [4] | Ki [4] | IC50 [5] | Ki [5] | IC50 [6] | IC50 [7] | IC50 [8] | IC50 [9] | IC50 [10] | further results
1 | O=C1c2c(O)ccc(O)c2C(=O)c2c(NCCNCCO)ccc(NCCNCCO)c21 [MITOXANTRONE] | Not Active | Not Active | Not Active | Not Active | Not Active | Not Active | Not Active | Not Active | Not Active | Not Active | Not Active | Not Active | 
2 | COc1c(C)c2c(c(O)c1C/C=C(\C)CCC(=O)OCCN1CCOCC1)C(=O)OC2 [MYCOPHENOLATE MOFETIL] | Not Active | Not Active | Not Active | Not Active | Not Active | Not Active | Not Active | Not Active | Not Active | Not Active | Not Active | Not Active | 
3 | COC(=O)C1=C(C)NC(C)=C(C(=O)OC)C1c1ccccc1[N+](=O)[O-] [NIFEDIPINE] | Not Active | Not Active | Not Active | Not Active | Not Active |  |  | Not Active | Not Active | Not Active | Not Active | Not Active | IC50 ([5]; read-out: IC50): 44.2 µM
4 | NNc1ccccc1 [PHENYLHYDRAZINE] | Not Active | Not Active | Not Active | Not Active | Not Active | Not Active | Not Active | Not Active | Not Active | Not Active | Not Active | Not Active | 
5 | CC(=O)[C@H]1CC[C@H]2[C@@H]3CCC4=CC(=O)CC[C@]4(C)[C@H]3CC[C@]12C [PROGESTERONE] | Not Active | Not Active | Not Active | Not Active | Not Active | Not Active | Not Active | Not Active | Not Active | Not Active | Not Active | Not Active | 
6 | NC(=O)c1ncn([C@@H]2O[C@H](CO)[C@@H](O)[C@H]2O)n1 [RIBAVIRIN] | Not Active | Not Active | Not Active | Not Active | Not Active | Not Active | Not Active | Not Active | Not Active | Not Active | Not Active | Not Active | 
7 | O=[N+]([O-])c1cc([As](=O)(O)O)ccc1O [ROXARSONE] | Not Active | Not Active | Not Active | Not Active | Not Active | Not Active | Not Active | Not Active | Not Active | Not Active | Not Active | Not Active | Ki [1]: Not Active; Ki [2]: Not Active; Ki [3]: Not Active; Ki [6]: Not Active; Ki [7]: Not Active; Ki [8]: Not Active; Ki [9]: Not Active; Ki [10]: Not Active

Reference: ChEMBL document CHEMBL1909046, “DrugMatrix in vitro pharmacology data”
